Read-outs that look alike come from different tables or passages of the source.
Legend:
BRD4-BD12 (1-477) = BRD4-BD12 (1-477) (Homo sapiens (Human), UniProt O60885); experiment: Alphascreen binding assay BRD4-BD12; conditions: BRD4(1 2) H4; read-out: Biochemical activity (IC50 μM) BRD4(1 2) H4
Procedure, shortened: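 First, compound was preincubated 1 h at room temperature with the His-tagged BRD4 protein (BD1 44-164 or tandem BD12 1-477) and acetylated H4 peptide. Next, donor and acceptor beads were added at 7.5 μg/ml final. After 30 min, AlphaScreen emission was recorded.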

MV-4-11 cells = experiment: Oncology cell growth assay MV-4-11 (CellTiter Glo); type: cell-based; conditions: Homo sapiens, MV4-11, 72 h, read-out: Cell activity (IC50 μM) MV-4-11 3d-Growth
Procedure, shortened: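 MV-4-11 AML cells (MLL-AF4), 3000 per well, exposed to 8-point 1:3 compound titration from 10 μM top concentration (0.2% DMSO) for 72 h. Viability by CellTiter Glo luminescence, normalized to DMSO controls; pIC50 from four-parameter curve fit.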

bromodomain = experiment: at least one of the bromodomain cell assays of Example 57; type: cell-based; conditions: at least one of the bromodomain cell assays described in Example 57; read-out: IC50 in at least one of the bromodomain cell assays

| SMILES | IC50 (BRD4-BD12 (1-477)) | IC50 (MV-4-11 cells; MV-4-11, 3d growth) | IC50 (bromodomain) | IC50 (MV-4-11 cells) |
| --- | --- | --- | --- | --- |
| Cc1noc(C)c1-c1cnc2c(-c3ccc(C(C)(C)C(=O)O)cc3)cn(CC3CCC(F)(F)CC3)c2c1 [P-0433, 2-[4-[1-[(4,4-difluorocyclohexyl)methyl]-6-(3,5-dimethylisoxazol-4-yl)pyrrolo[3,2-b]pyridin-3-yl]phenyl]-2-methyl-propanoic acid] | < 1 µM | < 1 µM | < 10000 nM |  |
| [2H]C([2H])(O)c1ccc(-c2cn(CC3CCC(F)(F)CC3)c3cc(-c4c(C)noc4C)cnc23)cc1 [P-0571, dideutrio-[4-[1-[(4,4-difluorocyclohexyl)methyl]-6-(3,5-dimethylisoxazol-4-yl)pyrrolo[3,2-b]pyridin-3-yl]phenyl]methanol] | < 1 µM | < 1 µM | < 10000 nM |  |
| COC(=O)c1ccc(-c2cn(CC3(F)CCC(F)(F)CC3)c3cc(-c4c(C)noc4C)cnc23)cc1F [P-0387, methyl 4-[6-(3,5-dimethylisoxazol-4-yl)-1-[(1,4,4-trifluorocyclohexyl)methyl]pyrrolo[3,2-b]pyridin-3-yl]-2-fluoro-benzoate] | < 1 µM |  | < 10000 nM | < 1 µM |
| Cc1noc(C)c1-c1cnc2c(-c3ccc(O)cc3)cn(CC3(F)CCCCC3)c2c1 [P-0523, 4-[6-(3,5-dimethylisoxazol-4-yl)-1-[(1-fluorocyclohexyl)methyl]pyrrolo[3,2-b]pyridin-3-yl]phenol] | < 1 µM | < 1 µM | < 10000 nM |  |
| Cc1noc(C)c1-c1cnc2c(-c3ccc(-c4nnn[nH]4)cc3)cn(CC3(F)CCC(F)(F)CC3)c2c1 [P-0461, 3,5-dimethyl-4-[3-[4-(1H-tetrazol-5-yl)phenyl]-1-[(1,4,4-trifluorocyclohexyl)methyl]pyrrolo[3,2-b]pyridin-6-yl]isoxazole] | < 1 µM | < 1 µM | < 10000 nM |  |
| Cc1noc(C)c1-c1cnc2c(-c3ccc(C(=O)O)cc3)cn(CC3CC(F)(F)C3)c2c1 [P-0432, 4-[1-[(3,3-difluorocyclobutyl)methyl]-6-(3,5-dimethylisoxazol-4-yl)pyrrolo[3,2-b]pyridin-3-yl]benzoic acid] | < 1 µM | < 1 µM | < 10000 nM |  |
| CCOC(=O)c1ccc(-c2cn(CC3CCC(F)(F)CC3)c3cc(-c4c(C)noc4C)cnc23)cc1 [P-0537, ethyl 4-[1-[(4,4-difluorocyclohexyl)methyl]-6-(3,5-dimethylisoxazol-4-yl)pyrrolo[3,2-b]pyridin-3-yl]benzoate] | < 1 µM | < 1 µM | < 10000 nM |  |
| Cc1noc(C)c1-c1cnc2c(-c3cnn(C(F)F)c3)cn(C(C)c3ccccn3)c2c1 (stereo not drawn) [P-0361, 4-[3-[1-(difluoromethyl)pyrazol-4-yl]-1-[1-(2-pyridyl)ethyl]pyrrolo[3,2-b]pyridin-6-yl]-3,5-dimethyl-isoxazole] | < 1 µM |  | < 10000 nM | < 1 µM |
| Cc1noc(C)c1-c1cnc2c(-c3ccc(C(=O)OC(C)(C)C)cc3)cn(S(=O)(=O)c3ccccc3)c2c1 [P-0374, tert-butyl 4-[1-(benzenesulfonyl)-6-(3,5-dimethylisoxazol-4-yl)pyrrolo[3,2-b]pyridin-3-yl]benzoate] | 1 to 10 µM |  | < 10000 nM | 10 to 200 µM |
| Cc1noc(C)c1-c1cnc2c(-c3ccc(C(=O)O)cc3)cn([C@H](C)c3ccccc3)c2c1 [P-0583, 4-[6-(3,5-dimethylisoxazol-4-yl)-1-[(1R)-1-phenylethyl]pyrrolo[3,2-b]pyridin-3-yl]benzoic acid] | < 1 µM | < 1 µM | < 10000 nM |  |
| Cc1noc(C)c1-c1cnc2c(-c3cn(C)nc3C(F)(F)F)cn(CC3CCC(F)(F)CC3)c2c1 [P-0410, 4-[1-[(4,4-difluorocyclohexyl)methyl]-3-[1-methyl-3-(trifluoromethyl)pyrazol-4-yl]pyrrolo[3,2-b]pyridin-6-yl]-3,5-dimethyl-isoxazole] | < 1 µM |  | < 10000 nM | < 1 µM |
| CNS(=O)(=O)c1ccc(-c2cn([C@@H](C)c3ccccn3)c3cc(-c4c(C)noc4C)cnc23)cc1 [P-0555, 4-[6-(3,5-dimethylisoxazol-4-yl)-1-[(1S)-1-(2-pyridyl)ethyl]pyrrolo[3,2-b]pyridin-3-yl]-N-methyl-benzenesulfonamide] | < 1 µM | < 1 µM | < 10000 nM |  |
| Cc1noc(C)c1-c1cnc2c(-c3cccc(CC(=O)O)c3)cn(CC3(F)CCCCC3)c2c1 [P-0384, 2-[3-[6-(3,5-dimethylisoxazol-4-yl)-1-[(1-fluorocyclohexyl)methyl]pyrrolo[3,2-b]pyridin-3-yl]phenyl]acetic acid] | < 1 µM |  | < 10000 nM | < 1 µM |
| Cc1noc(C)c1-c1cnc2c(-c3ccc(C(=O)O)cc3)cn(CC3(F)CCC(F)(F)CC3)c2c1 [P-0382, 4-[6-(3,5-dimethylisoxazol-4-yl)-1-[(1,4,4-trifluorocyclohexyl)methyl]pyrrolo[3,2-b]pyridin-3-yl]benzoic acid] | < 1 µM |  | < 10000 nM | < 1 µM |
| Cc1noc(C)c1-c1cnc2c(-c3ccc(C(F)(F)C(=O)O)cc3)cn([C@@H](C)c3ccccn3)c2c1 [P-0566, 2,2-difluoro-2-(4-(6-(3,5-dimethylisoxazol-4-yl)-1-((S)-1-(pyridin-2-yl)ethyl)-1H-pyrrolo[3,2-b]pyridin-3-yl)phenyl)acetic acid] | < 1 µM | 1 to 10 µM | < 10000 nM |  |
| COc1ncc(-c2cn(CC3(F)CCCCC3)c3cc(-c4c(C)noc4C)cnc23)cn1 [P-0464, 4-[1-[(1-fluorocyclohexyl)methyl]-3-(2-methoxypyrimidin-5-yl)pyrrolo[3,2-b]pyridin-6-yl]-3,5-dimethyl-isoxazole] | < 1 µM | < 1 µM | < 10000 nM |  |
| Cc1noc(C)c1-c1cnc2c(-c3cnn(CC(F)(F)F)c3)cn(Cc3ccc(Cl)cc3)c2c1 [P-0365, 4-[1-[(4-chlorophenyl)methyl]-3-[1-(2,2,2-trifluoroethyl)pyrazol-4-yl]pyrrolo[3,2-b]pyridin-6-yl]-3,5-dimethyl-isoxazole] | < 1 µM |  | < 10000 nM | < 1 µM |
| Cc1noc(C)c1-c1cnc2c(-c3ccccc3C(=O)O)cn(CC3(F)CCCCC3)c2c1 [P-0501, 2-[6-(3,5-dimethylisoxazol-4-yl)-1-[(1-fluorocyclohexyl)methyl]pyrrolo[3,2-b]pyridin-3-yl]benzoic acid] | < 1 µM | < 1 µM | < 10000 nM |  |
| CC(C)n1cc(-c2cnc3ccn(CC4CCC(F)(F)CC4)c3c2)ccc1=O [P-0518, 5-[1-[(4,4-difluorocyclohexyl)methyl]pyrrolo[3,2-b]pyridin-6-yl]-1-isopropyl-pyridin-2-one] | 1 to 10 µM | 10 to 200 µM | < 10000 nM |  |
| Cc1noc(C)c1-c1cnc2c(-c3ccc(NC(N)=O)cc3)cn(CC3(F)CCCCC3)c2c1 [P-0521, [4-[6-(3,5-dimethylisoxazol-4-yl)-1-[(1-fluorocyclohexyl)methyl]pyrrolo[3,2-b]pyridin-3-yl]phenyl]urea] | < 1 µM | < 1 µM | < 10000 nM |  |
| Cc1noc(C)c1-c1cnc2c(-c3ccc(C(=O)O)cc3)cn(Cc3ccccn3)c2c1 [P-0431, 4-[6-(3,5-dimethylisoxazol-4-yl)-1-(2-pyridylmethyl)pyrrolo[3,2-b]pyridin-3-yl]benzoic acid] | < 1 µM | < 1 µM | < 10000 nM |  |
| Cc1nnn(C)c1-c1cnc2c(-c3cnn(C)c3)cn(CC3(F)CCC(F)(F)CC3)c2c1 [P-0424, 6-(3,5-dimethyltriazol-4-yl)-3-(1-methylpyrazol-4-yl)-1-[(1,4,4-trifluorocyclohexyl)methyl]pyrrolo[3,2-b]pyridine] | < 1 µM |  | < 10000 nM | < 1 µM |
| [2H]C([2H])(C1CCC(F)(F)CC1)n1cc(-c2cn(C)nc2C(F)(F)F)c2ncc(-c3c(C)noc3C)cc21 [P-0337, 4-[1-[dideuterio-(4,4-difluorocyclohexyl)methyl]-3-[1-methyl-3-(trifluoromethyl)pyrazol-4-yl]pyrrolo[3,2-b]pyridin-6-yl]-3,5-dimethyl-isoxazole] | < 1 µM |  | < 10000 nM | < 1 µM |
| Cc1noc(C)c1-c1cnc2c(-c3ccc(CC(=O)O)cc3)cn(CC3(F)CCCCC3)c2c1 [P-0383, 2-[4-[6-(3,5-dimethylisoxazol-4-yl)-1-[(1-fluorocyclohexyl)methyl]pyrrolo[3,2-b]pyridin-3-yl]phenyl]acetic acid] | < 1 µM |  | < 10000 nM | < 1 µM |
| Cc1noc(C)c1-c1cnc2c(-c3ccc(C4(C(=O)O)CC4)cc3)cn(CC3(F)CCCCC3)c2c1 [P-0385, 1-[4-[6-(3,5-dimethylisoxazol-4-yl)-1-[(1-fluorocyclohexyl)methyl]pyrrolo[3,2-b]pyridin-3-yl]phenyl]cyclopropanecarboxylic acid] | < 1 µM |  | < 10000 nM | < 1 µM |
| Cc1noc(C)c1-c1cnc2c(-c3cccnc3)cn(CC3CCC(F)(F)CC3)c2c1 [P-0388, 4-[1-[(4,4-difluorocyclohexyl)methyl]-3-(3-pyridyl)pyrrolo[3,2-b]pyridin-6-yl]-3,5-dimethyl-isoxazole] | < 1 µM |  | < 10000 nM | < 1 µM |
| COc1ccc(-c2cn(CC3(F)CCCCC3)c3cc(-c4c(C)noc4C)cnc23)cn1 [P-0470, 4-[1-[(1-fluorocyclohexyl)methyl]-3-(6-methoxy-3-pyridyl)pyrrolo[3,2-b]pyridin-6-yl]-3,5-dimethyl-isoxazole] | < 1 µM | < 1 µM | < 10000 nM |  |

Reference: US10519177B2, “Heterocyclic compounds and uses thereof” (Plexxikon Inc., priority 2013, dated 2019)
